US8236985B2, “Compounds and uses thereof” (Imperial Innovations Ltd., priority 2006, dated 2012)
pEC50: −log10 of the molar value. Like-named read-outs stand apart in the source and are kept apart here.

Tests used:
[1] = Intraperitoneal pharmacokinetic studies in vivo; set-up: species or system mouse; settings: for Number of UV metabolites: 80 mg/kg i.p.
Protocol: Parent compound and phase I metabolites were separated by HPLC and detected with simultaneous UV and positive ion electrospray mass spectrometry. Metabolites were identified by positive ion electrospray tandem mass spectrometry.
C1-A was introduced at 80 mg/kg in DMSO (0.0015 ml/g; 30 μl) intraperitoneally into the mouse.

MCF-7 cells = test: Sulforhodamine B (SRB) cell growth inhibition assay; type: cell-based, human; settings: N=5-6
Protocol: Stock cultures of MCF-7 and MDA-MB-231 human breast cancer cell lines (American Type Culture Collection, Rockville, Md.) are grown in Dulbecco's Modified Eagle's Medium (DMEM) containing 10% (v/v) foetal calf serum, 2 mM L-glutamine, 100 units/ml penicillin and 100 μg/ml streptomycin at 37° C. in 5% CO2 humidified atmosphere. Cells are counted in a haemocytometer after detachment using 0.25% (w/v) trypsin in Dulbecco's Phosphate Buffered Saline without Ca^2+ or Mg^2+ (DPBS) (Sigma-Aldrich, Gillingham, UK) containing 0.02% (w/v) EDTA. Viability is determined by Trypan blue exclusion. For each cell line, cells are seeded in 96-well microtitre plates at optimal densities determined in prior experiments to ensure exponential growth for the duration of the assay. […] After 48 hour incubation, cell proliferation is determined using the sulforhodamine B colorimetric assay described by Skehan et al. (1990) J. Natl. Cancer Inst. 82, 1107-1112. Briefly, 100 μl of ice cold 40% (w/v) trichloroacetic acid is added to each well and incubated for 1 hour at 4° C. The plate is then rinsed gently with five changes of tap water. To each well is then added 100 μl of 0.4% (w/v) sulforhodamine B in 1% (v/v) acetic acid and incubated for 1 hour at room temperature. The plate is then washed five times with 1% (v/v) acetic acid and allowed to air dry overnight. Bound dye is then solubilised by addition of 100 μl of 10 mM Tris base to each well followed by incubation on a vibrating plate shaker for 30 minutes. Absorbance at 492 nm is then measured on a microtitre plate reader and the results expressed as the mean ±SE for 6 replicates as a % of vehicle control (taken as 100%). The concentration of each compound of the invention that inhibits cell proliferation by 50% (IC50) is determined graphically in each case using non-linear regression analysis to fit inhibition data to the appropriate dose-response curve (GraphPad Prism Version 4.0; GraphPad Software Inc., San Diego, Calif.).
Trichostatin A (TSA) was used as control.

[2] = tested on: HDAC (HeLa nuclear extract); test: Fluorometric HDAC inhibition assay using the Fluor de Lys assay kit; type: biochemical, human
Protocol: Histone deacetylase inhibition by compounds of the invention is assayed by a commercial fluorescent assay kit (BIOMOL—AK-500). 10 mM stock solutions of compounds of the invention prepared in DMSO are aliquoted and frozen at −20° C. For each assay, a vial of the drug solution is thawed to prepare dilutions of drug in DMSO; the remaining drug is discarded. Working solutions of the assay reagents are prepared according to the manufacturers instructions. For the assay, 10 μl of ×5 concentrations of drug (in triplicate) or HDAC assay buffer is added to 15 μl of dilute HeLa nuclear extract (BIOMOL; D1409) and 25 μl of (2×) Fluor-de-Lys substrate in a micro titre plate (Perkin Elmer # 6005270, Optiplate-96 Black microplate) and thoroughly mixed. […] The reactions are allowed to proceed for 10 min and then stopped by addition of 50 μl of dilute Fluor-de-Lys developer solution. The reaction mixtures are then incubated at room temperature for 15 min and fluorescence is read on a Victor multi-well Fluorescence plate reader at an excitation wavelength of 355 nm and emission wavelength of 460 nm.
To obtain a calibration curve, 50 μl aliquots of deacetylated standards prepared in HDAC assay buffer according to the manufacturer's instructions are mixed with 50 μl of diluted Fluor-de-Lys developer solution and incubated for 10 min at room temperature. The fluorescence is measured as above. A plot of arbitrary fluorescence units (AFU) against deacetylated standard concentration in μM is made. The slope and intercept are determined and used for conversion of inhibitor data AFU into velocity of reaction (V, μM/min). To obtain half-maximal inhibition (EC50), molar concentrations of drug are plotted against V and the EC50 is determined from the sigmoid dose response using the GraphPad Prism software.

[3] = tested on: Histone H4 acetylation, pRb and Cyclin D1 in MCF-7 cells; test: Western blots of acetyl-H4, pRb and cyclin D1; type: cell-based, human; settings: MCF-7 cells treated 24 h; western blot (FIG. 13)
Protocol: MCF-7 cells were treated with drug or vehicle (equivalent concentration of DMSO in growth media) for 24 h. Cells were harvested and homogenised. The respective proteins (acetyl-H4, pRb and cyclin D1) in supernatants of these homogenates were visualised by western blot analysis as previously described (Leyton J. et al., Cancer Res. (2006) 66(15): 7621-9).

[4] = tested on: HCT116 human colon cancer cells; test: Efficacy in vivo, HCT116 tumour-bearing mice; set-up: species or system mouse; settings: 80 mg/ml i.p. daily for 7 days, n=1; for Efficacy in vivo (tumour volume vs vehicle control): HCT116 s.c. tumours
Protocol: The study was carried out at n=1 each for drug- or vehicle-treated mice. HCT116 human colon cancer cells were injected subcutaneously into the back of mice to form tumours.
When the tumours were about ˜125 mm^3, the mice were injected with C1-A at 80 mg/ml or vehicle (10% DMSO, 5% Tween 20 and 85% saline) intraperitoneally daily for 7 days. Tumour sizes were measured every 1-2 days in 3 orthogonal axes by callipers to determine tumour volume.

[5] = Pharmacokinetic studies in vivo after intravenous injection; set-up: species or system mouse; settings: 80 mg/kg i.v.
Protocol: C1-A at 80 mg/kg in 10% DMSO, 5% Tween 20 and 85% saline was injected i.v. into the mouse. Plasma samples were deproteinated with two volume equivalents of methanol, then 200 μl was analysed by reversed-phase high pressure liquid chromatography (5 μm C18 column and 10 mM ammonium acetate/acetonitrile gradient) with ultraviolet detection at a wavelength of 351 nm. C1-A was detectable in plasma up to 60 min after i.v. injection.

[6] = tested on: N-methyl-N-nitrosourea carcinogen-induced rat mammary cancer; settings: 500 μg/kg/day s.c. for 4 weeks; cited from earlier work
[7] = cited from earlier work
[8] = tested on: MCF7 and MDA-MB-435 human mammary tumour xenografts; test: Human mammary tumour xenografts in immunodeficient mice; type: in vivo, mouse; settings: 20-40 mg/kg/day i.p. for 2 weeks
HDAC [9] = settings: background statement; cited from earlier work
HDAC [10] = settings: HPLC fractions tested in vitro; cited from earlier work
[11] = MCF-7 cells, first of two independent assays
[12] = MCF-7 cells, second of two independent assays
[13] = first of two independent assay sets, N=3, read-out: Average EC50
[14] = second of two independent assay sets, N=3, read-out: Average EC50

## (E,E)-4-methyl-5-{4-[4-bis-(2-chloroethylamino)phenyl]-sulfonamido}penta-2,4-dienoic acid N-hydroxyamide [Example C1-A]
[1]; 80 mg/kg i.p. in DMSO, mouse, HPLC-UV (FIG. 16)
  Stability in vivo: stable in vivo
[1]; mouse, at 60 minutes
  Number of UV metabolites: 5
MCF-7 cells; [11]
  pEC50: 5.41
MCF-7 cells; [12]
  pEC50: 5.17
[2]; [13]
  pEC50: 6.23
[2]; [14]
  pEC50: 6.51
[3]
  Concentration at which pRb & cyclin D are inhibited and H4 hyperacetylation is induced, relative to TSA: ≥ 10 × [TSA]
[4]
  Toxicity based on measurement of body weight: no toxicity was detectable
  Efficacy in vivo (tumour volume vs vehicle control): Tumour volume was greater in the control than in the C1-A-treated mouse
[4]; listed as C1A
  Efficacy in vivo (tumour volume vs vehicle control): efficacious in vivo
[5]; Balb/c mice (FIG. 14)
  Stability in vivo: stable in vivo
[5]; mouse
  Detection in liver: detectable in the liver at all time points
[5]; mouse, HPLC-UV
  Time up to which compound was detectable in plasma: up to 60 min

## CCN(CC)c1ccc(S(=O)(=O)Nc2ccc(/C=C(C)/C=C/C(=O)NO)cc2)cc1 [Example C1-B, (E,E)-4-methyl-5-{4-[4-(diethylamino)phenyl]sulfonamido}penta-2,4-dienoic acid N-hydroxyamide]
MCF-7 cells; Homo sapiens, MCF7, MCF-7 cells, first of two independent assays
  pEC50: 5.22
MCF-7 cells; Homo sapiens, MCF7, MCF-7 cells, second of two independent assays
  pEC50: 4.85
[2]; [13]
  pEC50: 6.49
[2]; [14]
  pEC50: 6.35

## CC(/C=C/C(=O)NO)=C\[C@@H](C)C(=O)c1ccc(N(C)C)cc1 [TSA, Trichostatin A]
[6]
  Anti-tumour activity: potent anti-tumour activity
  Toxicity in vivo: without significant toxicity
[1]; mice, at 20 minutes (FIG. 17 and Sanderson et al, 2004)
  Number of UV metabolites: 17
[1]; FIG. 17
  Metabolism in vivo: rapidly metabolised in vivo
MCF-7 cells; [11]
  pEC50: 7.12
MCF-7 cells; [12]
  pEC50: 6.96
[7]; TSA, at 20 minutes (Sanderson et al, 2004), quoted in Example 10
  Number of UV metabolites: 17
[7]; TSA, at 20 minutes (Sanderson et al, 2004)
  Parent drug remaining: almost no parent drug
[7]; plasma, 80 mg/kg i.p., mice
  Cmax: 40 µg/mL
  Half-life: 6.3 min
[8]
  Anti-tumour activity: anti-tumour activity
HDAC [9]
  Concentrations at which HDAC is inhibited: low nanomolar

## Depudecin [reference compound]
[2]; control, read-out: EC50
  pEC50: < 5.00
HDAC [9]
  Concentrations at which HDAC is inhibited: micromolar

## CNc1ccc(C(=O)C(C)C=C(C)C=CC(=O)NO)cc1 (centres unmarked) [N-demethylated TSA metabolite, N-demethylated TSA]
HDAC [10]
  HDAC inhibitory potency relative to TSA: equipotent
